Experimental data from ChEMBL document CHEMBL4184145, “Synthesis and structure-activity relationship of teixobactin analogues via convergent Ser ligation” (2017).
In brackets after ≈: the same amount, converted by molar mass.

Legend:
[1] = tested on: Staphylococcus aureus; assay: Antibacterial activity against methicillin-susceptible Staphylococcus aureus ATCC 29213 by broth dilution assay; assay type: functional
[2] = tested on: Staphylococcus aureus; assay: Antibacterial activity against methicillin-resistant Staphylococcus aureus clinical isolate SA86 by broth dilution assay; assay type: functional

| Compound | MIC [1] | MIC [2] |
| --- | --- | --- |
| CC[C@@H](C)[C@@H](NC(=O)[C@@H](CCC(N)=O)NC(=O)[C@H](CO)NC(=O)[C@@H](NC(=O)[C@@H](Cc1ccccc1)NC)[C@@H](C)CC)C(=O)N[C@H](C(=O)N[C@@H](CO)C(=O)N[C@H]1C(=O)N[C@@H](C)C(=O)N[C@@H](CCCN)C(=O)N[C@@H]([C@@H](C)CC)C(=O)O[C@H]1C)[C@@H](C)CC | 2 µg/mL (≈ 1.66 µM) | 2 µg/mL (≈ 1.66 µM) |
| CC[C@@H](C)[C@@H](NC(=O)[C@@H](CCC(N)=O)NC(=O)[C@H](CO)NC(=O)[C@@H](NC(=O)[C@@H](Cc1ccccc1)NC)[C@@H](C)O)C(=O)N[C@H](C(=O)N[C@@H](CO)C(=O)N[C@H]1C(=O)N[C@@H](C)C(=O)N[C@@H](CCCN)C(=O)N[C@@H]([C@@H](C)CC)C(=O)O[C@H]1C)[C@@H](C)CC | ≥ 32 µg/mL | ≥ 32 µg/mL |
| CC[C@@H](C)[C@@H](NC(=O)[C@@H](CCC(N)=O)NC(=O)[C@H](CO)NC(=O)[C@@H](NC(=O)[C@@H](Cc1ccccc1)NC)C(C)C)C(=O)N[C@H](C(=O)N[C@@H](CO)C(=O)N[C@H]1C(=O)N[C@@H](C)C(=O)N[C@@H](CCCN)C(=O)N[C@@H]([C@@H](C)CC)C(=O)O[C@H]1C)[C@@H](C)CC | 8 µg/mL (≈ 6.73 µM) | 8 to 16 µg/mL (≈ 6.73 to 13.5 µM) |
| CC[C@@H](C)[C@@H](NC(=O)[C@@H](CCC(N)=O)NC(=O)[C@H](CO)NC(=O)[C@@H](NC(=O)[C@@H](C)NC)[C@@H](C)CC)C(=O)N[C@H](C(=O)N[C@@H](CO)C(=O)N[C@H]1C(=O)N[C@@H](C)C(=O)N[C@@H](CCCN)C(=O)N[C@@H]([C@@H](C)CC)C(=O)O[C@H]1C)[C@@H](C)CC | ≥ 32 µg/mL | ≥ 32 µg/mL |
| CC[C@@H](C)[C@@H](NC(=O)[C@@H](CCC(N)=O)NC(=O)[C@H](CO)NC(=O)[C@@H](NC(=O)[C@H](Cc1ccccc1)NC)[C@@H](C)CC)C(=O)N[C@H](C(=O)N[C@@H](CO)C(=O)N[C@H]1C(=O)N[C@@H](C)C(=O)N[C@@H](CCCN)C(=O)N[C@@H]([C@@H](C)CC)C(=O)O[C@H]1C)[C@@H](C)CC | ≥ 32 µg/mL | ≥ 32 µg/mL |
| CC[C@@H](C)[C@@H](NC(=O)[C@@H](CCC(N)=O)NC(=O)[C@H](CO)NC(=O)[C@H](NC(=O)[C@@H](Cc1ccccc1)NC)[C@@H](C)CC)C(=O)N[C@H](C(=O)N[C@@H](CO)C(=O)N[C@H]1C(=O)N[C@@H](C)C(=O)N[C@@H](CCCN)C(=O)N[C@@H]([C@@H](C)CC)C(=O)O[C@H]1C)[C@@H](C)CC | ≥ 32 µg/mL | ≥ 32 µg/mL |
| CC[C@@H](C)[C@@H](NC(=O)[C@@H](CCC(N)=O)NC(=O)[C@H](CO)NC(=O)[C@@H](NC(=O)[C@H](N)Cc1ccccc1)[C@@H](C)CC)C(=O)N[C@H](C(=O)N[C@@H](CO)C(=O)N[C@H]1C(=O)N[C@@H](C)C(=O)N[C@@H](CCCN)C(=O)N[C@@H]([C@@H](C)CC)C(=O)O[C@H]1C)[C@@H](C)CC | 16 µg/mL (≈ 13.5 µM) | 16 µg/mL (≈ 13.5 µM) |
| CC[C@@H](C)[C@@H](NC(=O)[C@@H](CCC(N)=O)NC(=O)[C@H](CO)NC(=O)[C@H](CC(C)C)NC(=O)[C@@H](Cc1ccccc1)NC)C(=O)N[C@H](C(=O)N[C@@H](CO)C(=O)N[C@H]1C(=O)N[C@@H](C)C(=O)N[C@@H](CCCN)C(=O)N[C@@H]([C@@H](C)CC)C(=O)O[C@H]1C)[C@@H](C)CC | 4 to 8 µg/mL (≈ 3.33 to 6.65 µM) | 4 to 8 µg/mL (≈ 3.33 to 6.65 µM) |
| CC[C@@H](C)[C@@H](NC(=O)[C@@H](CCC(N)=O)NC(=O)[C@H](CO)NC(=O)[C@@H](NC(=O)[C@@H](Cc1ccccc1)NC)[C@@H](C)CC)C(=O)N[C@H](C(=O)N[C@@H](CO)C(=O)N[C@H]1C(=O)N[C@@H](C)C(=O)N[C@@H](CCNC(=N)N)C(=O)N[C@@H]([C@@H](C)CC)C(=O)O[C@H]1C)[C@@H](C)CC | 8 to 16 µg/mL (≈ 6.5 to 13 µM) | 16 µg/mL (≈ 13 µM) |
| CC[C@@H](C)[C@@H](NC(=O)[C@@H](CCC(N)=O)NC(=O)[C@H](CO)NC(=O)[C@H](C)NC(=O)[C@@H](Cc1ccccc1)NC)C(=O)N[C@H](C(=O)N[C@@H](CO)C(=O)N[C@H]1C(=O)N[C@@H](C)C(=O)N[C@@H](CCCN)C(=O)N[C@@H]([C@@H](C)CC)C(=O)O[C@H]1C)[C@@H](C)CC | ≥ 32 µg/mL | ≥ 32 µg/mL |
